Test [1] addresses T1, human orexin-1 receptor (hOX1R) (Homo sapiens, UniProt O43613).
T1 construct: expressed in transfected cells; host or cells: Chinese hamster ovary (CHO) cells
T1 sequence (O43613 1-425): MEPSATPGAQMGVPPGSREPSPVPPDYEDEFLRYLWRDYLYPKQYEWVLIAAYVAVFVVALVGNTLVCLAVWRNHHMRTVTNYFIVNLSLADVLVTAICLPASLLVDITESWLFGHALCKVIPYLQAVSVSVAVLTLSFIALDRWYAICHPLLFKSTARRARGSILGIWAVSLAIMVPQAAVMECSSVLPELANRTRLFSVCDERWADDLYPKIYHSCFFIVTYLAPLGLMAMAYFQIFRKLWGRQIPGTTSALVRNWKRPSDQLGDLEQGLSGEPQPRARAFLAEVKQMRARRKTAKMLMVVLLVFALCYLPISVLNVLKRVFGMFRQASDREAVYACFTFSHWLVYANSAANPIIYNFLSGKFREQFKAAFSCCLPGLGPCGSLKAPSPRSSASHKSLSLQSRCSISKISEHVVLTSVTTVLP
As to the kind of experiment: Orexin antagonistic activity assay (intracellular Ca2+, FDSS) in CHO cells expressing hOX1R. It is filed as cell-based. In outline:
(§1)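 Recombinant CHO cells, Fluo-3 AM loaded, were preincubated 30 min with compound, then stimulated with a modified orexin-A peptide (300 pM for hOX1R, 3 nM for hOX2R). Peak Ca2+ fluorescence read each second for 3 min; IC50 from concentration-response, normalised to ligand-only (100%) and no-ligand (0%) wells.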

Test [2] addresses T2, orexin-2 receptor (hOX2R) (Homo sapiens, UniProt O43614).
T2 construct: expressed in transfected cells; host or cells: Chinese hamster ovary (CHO) cells
T2 sequence (O43614 1-444): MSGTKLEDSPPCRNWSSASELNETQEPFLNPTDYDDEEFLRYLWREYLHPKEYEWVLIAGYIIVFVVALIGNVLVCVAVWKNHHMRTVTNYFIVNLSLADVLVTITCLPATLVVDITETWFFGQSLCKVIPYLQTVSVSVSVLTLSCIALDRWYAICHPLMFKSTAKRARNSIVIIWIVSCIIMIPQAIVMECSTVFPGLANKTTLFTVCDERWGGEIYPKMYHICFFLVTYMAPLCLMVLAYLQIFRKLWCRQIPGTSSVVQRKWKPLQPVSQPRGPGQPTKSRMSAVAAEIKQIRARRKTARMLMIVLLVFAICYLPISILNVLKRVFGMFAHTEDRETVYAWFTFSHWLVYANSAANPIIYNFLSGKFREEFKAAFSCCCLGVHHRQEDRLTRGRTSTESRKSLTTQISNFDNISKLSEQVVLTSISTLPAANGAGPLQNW
As to the kind of experiment: Orexin antagonistic activity assay (intracellular Ca2+, FDSS) in CHO cells expressing hOX2R. It is filed as cell-based. In outline:
as §1

[3] abbreviates: CHO cells expressing hOX1R, ligand peptide 300 pM, Fluo-3 maximum fluorescence intensity, read-out: IC50 value OX1.
Setting [4] is: CHO cells expressing hOX2R, ligand peptide 3 nM, Fluo-3 maximum fluorescence intensity, read-out: IC50 value OX2.

Read-outs that look alike come from different tables or passages of the source.

In the case of `Cc1ccc(-n2nccn2)c(C(=O)N2C[C@H](c3nc4cc(F)ccc4o3)CC[C@H]2C)n1` (single isomer, unassigned) [Example 11, [(2R*,5R*)-5-(5-Fluoro-1,3-benzoxazol-2-yl)-2-methylpiperidin-1-yl][6-methyl-3-(2H-1,2,3-triazol-2-yl)pyridin-2-yl]methanone], the half-maximal inhibitory concentration (IC50) – broadly, the point on the concentration scale where inhibition reaches its midpoint – turned out to be 42.1 nM in test [1] (setting [3]) and 43.7 nM in test [2] (setting [4]).

For the compound `C[C@@H]1CC[C@@H](c2nc3ccc(F)cc3o2)CN1C(=O)c1cc(Cl)ccc1-c1ncccn1` [Example 49, [5-Chloro-2-(pyrimidin-2-yl)phenyl][(2R,5R)-5-(6-fluoro-1,3-benzoxazol-2-yl)-2-methylpiperidin-1-yl]methanone], the IC50 in test [1] (setting [3]) came out at 103 nM; in test [2] (setting [4]) it was 93.1 nM.

Turning to `C[C@@H]1CC[C@@H](c2nc3cc(Cl)ccc3o2)CN1C(=O)c1ccc(F)cc1-c1ncccn1` [Example 17, [(2R,5R)-5-(5-Chloro-1,3-benzoxazol-2-yl)-2-methylpiperidin-1-yl][4-fluoro-2-(pyrimidin-2-yl)phenyl]methanone], the IC50 worked out at 54.5 nM in test [1] (setting [3]) and 10.3 nM in test [2] (setting [4]).

On to `C[C@@H]1CC[C@@H](c2nc3cc(Cl)ccc3o2)CN1C(=O)c1cc(C#N)ccc1-n1nccn1` [Example 21], for which the IC50 in test [1] (setting [3]) came out at 211 nM; in test [2] (setting [4]), 155 nM.

With `Cc1ccc(C(=O)N2C[C@H](c3nc4cc(Cl)ccc4o3)CC[C@H]2C)c(-n2nccn2)c1` [Example 26, [(2R,5R)-5-(5-Chloro-1,3-benzoxazol-2-yl)-2-methylpiperidin-1-yl][4-methyl-2-(2H-1,2,3-triazol-2-yl)phenyl]methanone], the concentration for half-maximal inhibition (IC50) in test [1] (setting [3]) stood at 11 nM; in test [2] (setting [4]) it was 8.4 nM.

For the compound `Cc1ccc(-n2nccn2)c(C(=O)N2C[C@H](c3nc4c(F)cccc4o3)CC[C@H]2C)c1` [Example 66, [(2R,5R)-5-(4-Fluoro-1,3-benzoxazol-2-yl)-2-methylpiperidin-1-yl][5-methyl-2-(2H-1,2,3-triazol-2-yl)phenyl]methanone], the IC50 worked out at 36.5 nM in test [1] (setting [3]) and 20.4 nM in test [2] (setting [4]).

In the case of `C[C@@H]1CC[C@@H](c2nc3cc(F)ccc3o2)CN1C(=O)c1c(F)cccc1-n1nccn1` [Example 35, [(2R,5R)-5-(5-Fluoro-1,3-benzoxazol-2-yl)-2-methylpiperidin-1-yl][2-fluoro-6-(2H-1,2,3-triazol-2-yl)phenyl]methanone], the results for the half-maximal inhibitory concentration (IC50) in test [1] (setting [3]) and in test [2] (setting [4]) were 91.1 nM and 5 nM, respectively.

As for `Cc1ccc(-n2nccn2)c(C(=O)N2C[C@H](c3nc4cc(Cl)ccc4o3)CC[C@H]2C)c1` (single isomer, unassigned) [Example 9, [(2R*,5R*)-5-(5-Chloro-1,3-benzoxazol-2-yl)-2-methylpiperidin-1-yl][5-methyl-2-(2H-1,2,3-triazol-2-yl)phenyl]methanone], the IC50 in test [1] stood at 1.2 nM; in test [2] it was 1.8 nM.

As to `Cc1ccc(-c2ncccn2)c(C(=O)N2C[C@H](c3nc4cc(OC(F)(F)F)ccc4o3)CC[C@H]2C)c1` [Example 41, [5-Methyl-2-(pyrimidin-2-yl)phenyl]{(2R,5R)-2-methyl-5-[5-(trifluoromethoxy)-1,3-benzoxazol-2-yl]piperidin-1-yl}methanone], the IC50 in test [1] (setting [3]) was found to be 177 nM; in test [2] (setting [4]) it was 45.1 nM.

On to `Cc1ccc(-n2nccn2)c(C(=O)N2C[C@H](c3nc4cc(F)c(F)cc4o3)CC[C@H]2C)n1` [Example 54, [(2R,5R)-5-(5,6-Difluoro-1,3-benzoxazol-2-yl)-2-methylpiperidin-1-yl][6-methyl-3-(2H-1,2,3-triazol-2-yl)pyridin-2-yl]methanone], for which the figures for the IC50 in test [1] (setting [3]) and in test [2] (setting [4]) were 98.7 nM and 52 nM, respectively.

`Cc1ccc(-n2nccn2)c(C(=O)N2C[C@H](c3nc4ccc(Cl)cc4o3)CC[C@H]2C)c1` [Example 43, [(2R,5R)-5-(6-Chloro-1,3-benzoxazol-2-yl)-2-methylpiperidin-1-yl][5-methyl-2-(2H-1,2,3-triazol-2-yl)phenyl]methanone]: the IC50 in test [1] (setting [3]) came out at 4.1 nM; in test [2] (setting [4]) it was 9.8 nM.

On to `C[C@@H]1CC[C@@H](c2nc3cc(Cl)ccc3o2)CN1C(=O)c1cc(F)ccc1-n1nccn1` (single isomer, unassigned) [Example 2, [(2R*,5R*)-5-(5-Chloro-1,3-benzoxazol-2-yl)-2-methylpiperidin-1-yl][5-fluoro-2-(2H-1,2,3-triazol-2-yl)phenyl]methanone], for which the IC50 in test [1] (setting [3]) is 19.8 nM; in test [2] (setting [4]), 8.7 nM.

As for `C[C@@H]1CC[C@@H](c2nc3cc(Cl)ccc3o2)CN1C(=O)c1c(F)cccc1-c1ncccn1` [Example 19, [(2R,5R)-5-(5-Chloro-1,3-benzoxazol-2-yl)-2-methylpiperidin-1-yl][2-fluoro-6-(pyrimidin-2-yl)phenyl]methanone], the IC50 in test [1] (setting [3]) was 83.7 nM; in test [2] (setting [4]), 9.3 nM.

For the compound `Cc1ccc(-c2ncccn2)c(C(=O)N2C[C@H](c3nc4cc(C(F)(F)F)ccc4o3)CC[C@H]2C)c1` [Example 37, [5-Methyl-2-(pyrimidin-2-yl)phenyl]{(2R,5R)-2-methyl-5-[5-(trifluoromethyl)-1,3-benzoxazol-2-yl]piperidin-1-yl}methanone], the results for the IC50 in test [1] (setting [3]) and in test [2] (setting [4]) were 36.5 nM and 9.3 nM, respectively.

`C[C@@H]1CC[C@@H](c2nc3cc(Cl)cnc3o2)CN1C(=O)c1ccc(F)cc1-n1nccn1` [Example 72, [(2R,5R)-5-(6-Chloro[1,3]oxazolo[5,4-b]pyridin-2-yl)-2-methylpiperidin-1-yl][4-fluoro-2-(2H-1,2,3-triazol-2-yl)phenyl]methanone]: the half-inhibitory concentration (IC50) is 412 nM in test [1] (setting [3]) and 80.5 nM in test [2] (setting [4]).

On to `Cc1ccc(-n2nccn2)c(C(=O)N2C[C@H](c3nc4c(Cl)cccc4o3)CC[C@H]2C)c1` [Example 68, [(2R,5R)-5-(4-Chloro-1,3-benzoxazol-2-yl)-2-methylpiperidin-1-yl][5-methyl-2-(2H-1,2,3-triazol-2-yl)phenyl]methanone], for which the results for the concentration for half-maximal inhibition (IC50) in test [1] (setting [3]) and in test [2] (setting [4]) were 7.1 nM and 4.6 nM, respectively.

Take `C[C@@H]1CC[C@@H](c2nc3cc(Cl)ccc3o2)CN1C(=O)c1cc(Br)ccc1-n1nccn1` [Example 22, [5-Bromo-2-(2H-1,2,3-triazol-2-yl)phenyyl][(2R,5R)-5-(5-chloro-1,3-benzoxazol-2-yl)-2-methylpiperidin-1-yl]methanone]: the IC50 was found to be 31.9 nM in test [1] (setting [3]) and 7.8 nM in test [2] (setting [4]).

`Cc1ccc(-n2nccn2)c(C(=O)N2C[C@H](c3nc4cc(C#N)ccc4o3)CC[C@H]2C)c1` [Example 56, 2-[(3R,6R)-6-Methyl-1-[5-methyl-2-(2H-1,2,3-triazol-2-yl)benzoyl]piperidin-3-yl]-1,3-benzoxazole-5-carbonitrile]: the results for the IC50 in test [1] (setting [3]) and in test [2] (setting [4]) were 164 nM and 10 nM, respectively.

Consider `COc1cnc(-c2ccc(F)cc2C(=O)N2C[C@H](c3nc4cc(Cl)ccc4o3)CC[C@H]2C)nc1` [Example 24, [(2R,5R)-5-(5-Chloro-1,3-benzoxazol-2-yl)-2-methylpiperidin-1-yl][5-fluoro-2-(5-methoxypyrimidin-2-yl)phenyl]methanone], for which the figures for the half-inhibitory concentration (IC50) in test [1] (setting [3]) and in test [2] (setting [4]) were 99.2 nM and 8.5 nM, respectively.

Turning to `Cc1ccc(-c2ncccn2)c(C(=O)N2C[C@H](c3nc4c(F)cccc4o3)CC[C@H]2C)c1` [Example 67, [(2R,5R)-5-(4-Fluoro-1,3-benzoxazol-2-yl)-2-methylpiperidin-1-yl][5-methyl-2-(pyrimidin-2-yl)phenyl]methanone], the half-maximal inhibitory concentration (IC50) was determined as 27.7 nM in test [1] (setting [3]) and 25.9 nM in test [2] (setting [4]).

For `Cc1ccc(-n2nccn2)c(C(=O)N2C[C@H](c3nc4cc(OC(F)(F)F)ccc4o3)CC[C@H]2C)n1` [Example 42, [6-Methyl-3-(2H-1,2,3-triazol-2-yl)pyridin-2-yl]{(2R,5R)-2-methyl-5-[5-(trifluoromethoxy)-1,3-benzoxazol-2-yl]piperidin-1-yl}methanone], the IC50 came out at 1040 nM in test [1] (setting [3]) and 919 nM in test [2] (setting [4]).

For the compound `Cc1ccc(-n2nccn2)c(C(=O)N2C[C@H](c3nc4cc(F)c(F)cc4o3)CC[C@H]2C)c1` [Example 50, [(2R,5R)-5-(5,6-Difluoro-1,3-benzoxazol-2-yl)-2-methylpiperidin-1-yl][5-methyl-2-(2H-1,2,3-triazol-2-yl)phenyl]methanone], the half-maximal inhibitory concentration (IC50) in test [1] (setting [3]) is 9.8 nM; in test [2] (setting [4]), 8.6 nM.
